Counter-ions that a name gives are not always drawn. Marks after values point to notes of the source that are not given here.

Here are results for four compounds from patent US10064890B2, “Amorphous calcium carbonate for the treatment of calcium malabsorption and metabolic bone disorders” (AMORPHICAL LTD, priority 2011, dated 2018).

The nature of data set [1]: Trial 1: serum calcium pharmacokinetics after single oral capsule of 45Ca-labeled calcium carbonate. More on the design: species or system Wistar rats. Particulars: rat, in vivo. On the procedure: (§1) Twenty-six 2 month-old male Wistar rats, weighing 240±15 g, were orally administered with a single gelatin capsule containing either ACC (amorphous calcium carbonate) or CCC (crystalline calcium carbonate) intrinsically labeled with ^45Ca, followed by measurements of calcium fractional absorption in serum and calcium excretion.
All animals were treated according to the Israel Animal Welfare Act under the supervision of the Ben-Gurion University Animal Care and Use program. Fifty-one two month-old male Wistar rats (Harlan-Teklad, Jerusalem, Israel), weighing 240±15 g, were randomly housed in 12 stainless steel cages in an environmentally-controlled room (23° C. temperature, 12:12 h light:dark cycle). The rats were fed laboratory rat chow pellets adequate in nutrients ad libitum (Koffolk, Petah-Tikva, Israel) and had free access to water for 48 h. Four days before the beginning of the experiment, the regular diet was replaced with a low calcium diet containing 0.24±0.05% calcium (0.675±0.05% phosphate), specially prepared by mixing two food types containing, respectively, 0.01% calcium (0.3% phosphate; Harlan-Teklad) and 1% calcium (0.8% phosphate; Koffolk). The two food types were separately ground in a mill to yield two powders which were dry mixed in a ratio of 4:1, respectively, until fine homogenization. The homogenized powder was extruded to form new food pellets.
Seventeen hours prior to capsule administration, the rats were weighed and blood samples were taken (baseline). The rats were then placed into individual metabolic cages and deprived of food and water until 3 h post-capsule administration. Three and 24 h post-dosing, ˜10 g of low calcium food pellets (0.01% calcium; Harlan-Teklad) were given to each rat. Distilled water was allowed ad libitum starting three h post-capsule administration.
Each rat was lightly sedated for 30 seconds with isoflurane (Minrad) diluted 1:4 (v:v) with propylene glycol (BioLab). A single capsule containing a specific calcium carbonate preparation (i.e. CCC, ACC, or ACC-C; n=17 for each group) was administered intragastrically to each of the experimental rats using a stainless steel rat administration syringe (Harvard Apparatus).
Blood samples of […] were taken from each rat's tail vein 17 h prior to capsule administration (time 0) and 2, 3, 6, 10, 24 and 34 h post-administration. The blood samples were immediately centrifuged for 10 minutes at 3000 g using a tabletop centrifuge (Hettich Zentrifugen, Bach, Switzerland). Duplicate samples (30 μl) of the supernatant serum were transferred into plastic vials containing scintillation liquid (Zinsser Analytic, Berkshire, UK) and radioactivity was measured using a liquid scintillation counter (Tri-Carb 2100TR, PerkinElmer, Boston, Mass.). Plasma radioactivity from the given dose were normalized according to the measured radioactivity and specific radioactive dose that each rat received [(serum cpm×100)/(total cpm×sample volume)].
Non-compartmental analysis of an individual rat's calcium concentration versus time data was performed using WinNonLin 5.2 software (Pharsight, Mountain View, Calif.).

In data set [2] the test system is ovariectomized (OVX) rat model. Nature of the data set: Trial 7: histomorphometry of un-decalcified proximal tibia sections. The format is in vivo, Sprague Dawley rats. To be noted: for BFR/BS / MAR / MS/BS: dynamic (calcein); for BFR/BS / MAR / MS/BS / BV/TV / Tb. N / Tb. Sp / Tb. Th: OVX rats; for BV/TV / Tb. N / Tb. Sp / Tb. Th: structural, 90 days. As to the method:
(§2) All rats were sacrificed by CO2.
Right tibias were removed from the formaldehyde solution and dehydrated through an ethanol gradient, cleared using xylene (24250521, Bio-Lab Ltd. Haifa, Israel), and infiltrated with 80% methylmethacrylate (MMA; M5599, Sigma Aldrich, Rehovot, Israel)+20% dibutyl phthalate (DBP; 61-5062, Merck Ltd, Hohenbrunn, Germany) for 3 days at 4° C. Specimens were then transferred to MMA+DBP+Benozoyl peroxide (617008, Merck Ltd, Hohenbrunn, Germany) solution for another 6 days infiltration at 4° C. Following infiltration procedure, specimens were embedded in MMA+DBP+2.5% Benozoyl peroxide under a temperature gradient (from 38° C. to 50° C. over a period of 4 days). Mid-sagittal (4 μm) un-decalcified sections from each specimen were cut using a Lecia RM 2025 microtome (Lecia Instruments Ltd, Petach Tikva, Israel) connected to tungsten carbide knifes (Disposable blade; TC65, Rhenium Inc. Bet-Nekufa, Israel). Most sections were stained with McNeal's tetrachrome for structural histomorphometry. The remaining sections were left unstained for dynamic histomorphometry.
Measurement of both structural and dynamic histomorphometry of the proximal tibia metaphisyes were obtained using a semi-automatic analysis system (Bioquant OSTEO, ver. 7.20.10, BIOQUANT Image Analysis Corporation Nashville, USA) which is connected to a microscope (Nikon Optiphot 2, Kingston, England) equipped with fluorescent light source.

The test system of data set [3] is ovariectomized (OVX) rat model. Nature of the data set: Trial 7: micro-CT of distal femur and 4th lumbar vertebra. To be noted: for Tb. N / Tb. Sp / Tb. Th: OVX rats, 90 days; for DA: sham group lower than the OVX group by / SMI: sham group lower than the OVX group by / TBPf: sham group lower than the OVX group by: 4th-lumbar vertebra, difference from sham; for trabecular bone region in μCT three-dimensional reconstruction: distal femur and 4th vertebra, FIG. 7, in comparison to the Sham; for trabecular femoral BMD: Sham group higher compared to the OVX group by: femur, difference from Sham.
Description: In the study, five groups of rats were tested (4 ovariectomized and 1 sham). The OVX animals were fed with special food mixtures in the form of pellets from four different calcium sources: commercial crystalline calcium carbonate served as control (mix A), natural ACC (Gastrolith powder) (mix B), synthetic ACC (comprising trace amounts of phospho-serine) (mix C), and commercial crystalline calcium citrate (mix D). Sham group was administrated with the same food as the control. Pellets from all four mixtures contained ˜0.5% elemental calcium as confirmed by atomic absorption apparatus (Varian AA240, Palo Alto, Calif., USA) and described in Table 19 with no added vitamin D, except for the amounts found in the original food pellets (22 IU vitamin D/g).
For the administration of the different calcium sources, special food pellets containing were prepared. Low calcium rodent pellets containing 0.02% calcium (Rat chow #TD95027 Harlan Inc., Jerusalem, Israel) was finely grounded and separately mixed with four different calcium sources. […] Every mix was separately pelleted and kept in a sealed bag at room temperature.
Rats were randomly assigned and operated according to their assigned five groups: Sham (sham-Ovariectomized) fed with mix A, and four other groups were ovariectomized (OVX) using a bilateral dorsal approach according to Lasota and Danowska-Klonowska (2004) Rocz Akad Med Bialymst 49 Suppl 1:129-131, and divided to OVX Control (fed with mix A), OVX Gast (fed with mix B), OVX ACC (fed with mix C) and OVX Citrate (fed with mix D). Following operation, rats were provided a 7 days recovery period under the same conditions as the acclimation period, standard laboratory diet ad-libitum and de-ionized water containing 1.5 ml/400 ml Dipyrone (Vitamed Ltd, Binyamina, Israel), and 1 mg/kg Enrofloxacin (Buyer Ltd. Leverkusen, Germany).
At the end of the recovery period the rats were group-housed in 47 cages (2 rats/cage) according to the group assignment, under the same controlled room conditions as described above. The assigned supplemental pellets and de-ionized water were provided ad-libitum during the entire treatment period (90 days). […] For dynamic histomorphometric analysis fluorochrom dye Calcein (20 mg/kg body mass; Sigma-Aldrich, Israel) was IP injected to all rats at days 76 and 86. On day 90, rats were individually housed in metabolic cages and deprived from food and water for 18 h. Urine was collected from each metabolic funnel and was stored at −80° C. for future analysis of bone resorption biochemical marker at end of the experiment (Time 90). Immediately after urine sampling, serum samples were extracted for evaluation of formation biochemical marker of day 90 and stored in the same manner as described at day 0. All rats were sacrificed by CO2. Right femurs and 4th lumbar vertebras were dissected, wrapped with gaze pads soaked with saline buffer and kept in −80° C. for measurement of bone micro-CT scan. The 5th lumbar vertebras were stored in the same conditions as the right femurs for mechanical testing. Right tibias were dissected and placed immediately for 24 h at 4° C. in 3.7% formaldehyde solution (F1636, Sigma-Aldrich, Israel) for structural and dynamic histomorphometric measurements.
Trabecular and cortical bone microarchitecture of right femurs and 4th lumbar vertebras were analyzed using a μCT scanner (Skyscan 1174, Kartuizersweg Kontich, Belgium).

The subject of data set [4] is ovariectomized (OVX) rat model. The experiment in a line: Trial 7: mechanical strength of the 5th lumbar vertebra (compression test). It is filed as in vivo, Sprague Dawley rats. As to the method: as §2
Mechanical properties (Ultimate force, Energy to ultimate force, Toughness and Energy to yield) were obtained from the compression tests of 5th lumbar vertebral body (L5). Calculation of the material properties were performed by measuring the height of the vertebral body and the average of caudal and cranial diameters using a caliper. Cross sectional area (CSA) and bone volume (BV) were obtained by μCT scanning that covered the entire bone including both trabecular and cortical shell.

For data set [5], the system named is ovariectomized (OVX) rat model. Nature of the data set: Trial 7: bone turnover biochemical markers (urine DPD, serum OC) by EIA. Particulars: day 90, OVX rats. It is filed as in vivo, Sprague Dawley rats. On the procedure: as §2
Serum Osteocalcin (OC) concentration was determined by EIA kit (#BT-490, Biomedical Technologies Inc. Stoughtone, USA) following a 1:10 serum dilution.
Urinary Deoxypyridinoline (DPD) concentration was determined by commercial EIA kit (#8007, Qudiel Inc. San Diego, USA) following a 1:50 dilution. DPD levels were normalized to Creatinine levels (#8009, Qudiel Inc. San Diego, USA).

The subject of data set [6] is ovariectomized (OVX) rat model. Nature of the data set: Trial 6: micro-CT of distal femur and 4th lumbar vertebra, ACC with or without alendronate. The format is in vivo, Sprague Dawley rats. Particulars: for SMI / TBPf / Tb. N / Tb. Sp / Tb. Th: OVX rats, 4 months treatment. On the procedure: The inventors have conducted a study aiming to evaluate the effects of Amorphous Calcium Carbonate (ACC) on bone mineral density and bone fraction in metabolic bone disorders, and specifically osteoporosis as presented in the ovariectomized (OVX) rat model wherein the ACC is administered in combination with a standard medication for osteoporosis. In the present trial, five groups of rats were tested (4 OVX and 1 sham). Following operation, all rats were left untreated (fed with standard laboratory diet) to develop osteopenia for a period of 2 months. […] In addition, the animals were i.v injected (3 times/week) with either saline or 2 μg/kg alendronate (ALN) according to their group assignment, as described in Table 16.
A CCC mix containing 1% elemental calcium from crystalline calcium carbonate (Socal® Precipitated Calcium Carbonate), and an ACC mix containing 1% elemental calcium from stable amorphous calcium carbonate (containing 1% phosphoserine and 2% Citrate; Amorphical Ltd., Beer-Sheva, Israel).
Following 2 months, rats started treatment according to their assignment as described in Table 16 for a period of 4 months. […] Food consumption and body weight were recorded weekly (Table 17). At the end of the treatment period, all rats were sacrificed by CO2.

Data set [7] is described as follows: Trial 1: calcium retention (intake minus feces and urine excretion). The format is in vivo, Wistar rats. To be noted: 34 h feces and urine collection, rats. As to the method:
as §1
Feces and urine were collected during the 17 h starvation phase during the acclimation period (baseline) and during the entire 34 h of the experiment to evaluate calcium. Samples of urine (500 μL) were transferred into plastic vials filled with scintillation liquid. Feces were dried overnight at 70° C. in an oven. The samples were ground in a mortar until fine homogenization. Feces samples (200 mg) were placed into 5 ml of 1 N NaOH solution (Gadot, Netanya, Israel), incubated for 3 hours at 80° C. and centrifuged for 10 minutes at 3,600 g. Duplicate samples of the supernatant (30 μL) were transferred into plastic vials containing scintillation liquid. Radioactivity of the urine and feces samples was measured using a liquid scintillation counter. Retention values were calculated by subtracting the radioactivity measured in the feces and urine from the given dose […].

On to amorphous calcium carbonate [ACC], for which, in data set [1], the “AUC∞” value is 134.5 ± 7.0 ^b μg × h/mL, the Cmax is recorded as 8.1 ± 0.8 ^b μg/mL and the Tmax is given as 2.8 ± 0.2 ^a h.

For the compound `O=C([O-])[O-].[Ca+2]` [Control, calcium carbonate], in data set [2], the “trabecular bone fraction and condensed trabeculas values lower compared to the Sham (average)” value was found to be 55%; the “trabecular separation higher in comparison to Sham” value stood at 130%; the BFR/BS is recorded as 0.164^a μm^2/μm/day; the MAR is 1.30 μm/day. In data set [2], the MS/BS was 8.31^a %, the BV/TV is on record as 12.8^b %, the “Tb. N” value is listed as 2.5^b mm^−1 and the “Tb. Sp” value was 296^b μm. In addition, the “Tb. Th” value in data set [2] is given as 47.1^a μm. Besides, in data set [3] (4th lumbar vertebra), the “Tb. N” value was 1.57^b mm^−1, the “Tb. Sp” value was 254^b μm and the “Tb. Th” value is recorded as 87.5 μm. Moreover, in data set [3], the “DA: sham group lower than the OVX group by” value is 22%, the “SMI: sham group lower than the OVX group by” value is on record as 43%, the “TBPf: sham group lower than the OVX group by” value came to 91% and the “trabecular bone region in μCT three-dimensional reconstruction” value (from here on “trabecular bone region”) is recorded as “lowest trabecular bone region”. Also, the “trabecular femoral BMD: Sham group higher compared to the OVX group by” value in data set [3] worked out at 64%. Also, in data set [3] (distal femur), the “BV/TV and Tb.N lower on average in comparison to the Sham” value was found to be 65%. Besides, in data set [3] (distal femur metaphysis), the “Tb. N” value is 2.2^b mm^−1, the “Tb. Sp” value is 248^b μm and the “Tb. Th” value is on record as 29.0^b μm. The “BV/TV and Tb.N lower on average in comparison to the Sham” value in data set [3] (vertebra) was 60%. Besides, the “mechanical strength properties lower in comparison to Sham (average)” value in data set [4] amounted to 41%. Moreover, in data set [5], the “DPD (urine deoxypyridinoline resorption marker)” value was 36.65^be nmol/mmol Cr and the “OC (serum osteocalcin formation marker)” value is reported as 14.8^a ng/ml.

Consider `O=C(O)CC(O)(CC(=O)O)C(=O)O` [Citrate, calcium citrate], for which, in data set [2], the “trabecular bone fraction and condensed trabeculas values lower compared to the Sham (average)” value is listed as 55%; the “trabecular separation higher in comparison to Sham” value was determined as 148%; the “trabecular thickness higher compared to Control” value is reported as 13%; the BFR/BS is recorded as 0.159^a μm^2/μm/day. Moreover, in data set [2], the MAR is recorded as 1.40 μm/day, the MS/BS was 8.25^a %, the BV/TV was 12.8^b % and the “Tb. N” value is 2.3^b mm^−1. For the same compound, in data set [2], the “Tb. Sp” value is 318^b μm and the “Tb. Th” value is given as 53^b μm. Also, in data set [2] (Citrate vs ACC), the “MS/BS lower from the ACC group” value came out at 26% and the “bone formation rate lower from ACC” value came out at 26%. Further, in data set [2] (Citrate vs Gast), the “MS/BS lower from the Gast group” value was 29% and the “bone formation rate lower from Gast” value is given as 28%. Also, in data set [3] (4th lumbar vertebra), the “Tb. N” value is reported as 1.59^b mm^−1, the “Tb. Sp” value was 262^b μm and the “Tb. Th” value came out at 86.6 μm. For the same compound, in data set [3], the “DA: sham group lower than the OVX group by” value was determined as 22%, the “SMI: sham group lower than the OVX group by” value came out at 43%, the “TBPf: sham group lower than the OVX group by” value stood at 91% and the “trabecular bone region” value is reported as “lowest trabecular bone region”. In addition, the “trabecular femoral BMD: Sham group higher compared to the OVX group by” value in data set [3] is reported as 63%. Besides, in data set [3] (distal femur metaphysis), the “Tb. N” value was 2.4^b mm^−1, the “Tb. Sp” value was 226^bd μm and the “Tb. Th” value is recorded as 29.1^b μm. Also, in data set [3] (micro-CT), the “trabecular bone fraction and its number, Citrate compared with Control” value is given as “No significant differences”. The “mechanical strength properties lower in comparison to Sham (average)” value in data set [4] stood at 40%. In data set [5], the “DPD (urine deoxypyridinoline resorption marker)” value is 43.55^e nmol/mmol Cr and the “OC (serum osteocalcin formation marker)” value is listed as 15.7^a ng/ml.

As for `O=C([O-])[O-].[Ca+2]` [CCC, crystalline calcium carbonate], in data set [6] (4th lumbar vertebra), the SMI amounted to 1.62, the TBPf is given as 8.5 mm^−1, the “Tb. N” value worked out at 1.75 mm^−1 and the “Tb. Sp” value was found to be 374 μm. The “Tb. Th” value in data set [6] (4th lumbar vertebra) is 98.4 μm. For the same compound, the “trabecular bone region” value in data set [6] (distal femur and 4th vertebra, FIG. 5, compared to CCC / third group) is “lowest trabecular bone region”. For the same compound, in data set [6] (distal femur metaphysis), the SMI turned out to be 1.66, the TBPf was 7.6 mm^−1, the “Tb. N” value is on record as 1.5 mm^−1 and the “Tb. Sp” value is 682 μm. Besides, the “Tb. Th” value in data set [6] (distal femur metaphysis) stood at 110 μm. In data set [1], the “AUC∞” value is given as 109.7 ± 6.4 ^a μg × h/mL, the Cmax is listed as 5.8 ± 0.07 ^a μg/mL and the Tmax is recorded as 3.0 ± 0.3 ^a h. For the same compound, the “retention of the received dose” value in data set [7] is reported as 48.5±1.3%.
